The text below walks through data of PubChem BioAssay (NCI).

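The compound was tested at five concentrations on cells cultured in 96-well plates, with a 48-hour exposure period. Here, GI50 denotes the concentration required for 50% inhibition of growth. TGI marks complete inhibition of growth.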

Common to all, as to test: DTP human tumour cell line panel, 48 h
Assay [1] deals with A498 renal.
For assay [2], the system named is EKVX NSCLC.
Assay [3] deals with NCI-H226 lung.
For assay [4], the system named is NCI-H522 lung.
For assay [5], the system named is OVCAR-3 ovarian.
Assay [6] has as its system SK-MEL-28 melanoma.
Assay [7] has as its system SN12C renal.
Assay [8] has as its system U251 CNS.

A word on the TGI: it is the concentration giving total growth inhibition. A low value points to more potent growth arrest. As a reminder, the GI50 is the concentration giving 50% growth inhibition.

`CC(=O)OCCOCNC(=S)N/N=C(\C)c1ccco1`: the TGI in assay [1], in assay [2], in assay [3], in assay [4], in assay [5] and in assay [6] was greater than 100 µM throughout. Besides, the concentration for total growth inhibition (TGI) in assay [7] and in assay [8] was greater than 100 µM throughout.
As for `CCC(=O)O[C@@H]1C2C(OC(C)=O)C34COC(C)([C@@H]3C3C(C[C@]3(C)OC(C)=O)[C@@H](OC(=O)c3ccccc3)C4=O)[C@H](OC(C)=O)[C@@]2(OC(C)=O)C[C@@H]1C` (some centres undefined), the TGI in assay [2] was greater than 100 µM; in assay [3] it was 41.4 µM; in assay [4], greater than 100 µM; in assay [5] it was 82.7 µM; in assay [6], greater than 100 µM; in assay [7] it was greater than 100 µM. In assay [8], this molecule displayed a total growth inhibition concentration (TGI) of 46 µM.
Take `Cn1cc(C(=O)C2CCCCC2)ccc1=O`: the TGI in assay [2], in assay [3], in assay [4], in assay [5], in assay [6] and in assay [7] was greater than 100 µM throughout. In assay [8], this molecule yielded a TGI greater than 100 µM.
`COc1ccccc1NC(=O)C1=C(C)NC(C)=C(C(=O)Nc2ccccc2OC)C1c1ccc(C(C)C)cc1`: the concentration for total growth inhibition (TGI) in assay [1], in assay [2], in assay [3], in assay [5], in assay [6] and in assay [7] was greater than 100 µM each time. This molecule also registered a TGI in assay [8] greater than 100 µM.
As to `CC(CN(CP(=O)([O-])[O-])CP(=O)([O-])[O-])N(CP(=O)([O-])[O-])CP(=O)([O-])[O-].N[C@@H]1CCCC[C@@H]1N.[Pt+2]` (centres undefined), the GI50 in assay [1], in assay [2], in assay [3], in assay [4], in assay [5] and in assay [6] was greater than 100 µM each time. The GI50 in assay [7] and in assay [8] was greater than 100 µM each time. Also, the TGI in assay [1], in assay [2], in assay [3], in assay [4], in assay [5] and in assay [6] was greater than 100 µM throughout. Also, the TGI in assay [7] and in assay [8] was greater than 100 µM each time.
As to `Cc1ccc(S(=O)(=O)N2CCCCC2CCO)cc1` (centres undefined), the TGI in assay [1], in assay [2], in assay [3], in assay [4], in assay [5] and in assay [7] was greater than 100 µM each time. In assay [8], this molecule displayed a TGI greater than 100 µM.
Take `Cc1cc(Cl)ccc1NC(=O)C1C(=O)N(c2ccc(Cl)cc2C)C(=O)/C1=N\N` (centres undefined): the TGI is 93.7 µM in assay [1]; greater than 100 µM in assay [2]; 93.8 µM in assay [3]; greater than 100 µM in assay [4]; greater than 100 µM in assay [5]; greater than 100 µM in assay [6]. Moreover, the TGI in assay [7] and in assay [8] was greater than 100 µM each time.
`O=C(/C=C/c1ccccc1F)C(c1ccccc1)c1ccccc1`: the TGI in assay [2] came out at 24.4 µM; in assay [3], 25.3 µM; in assay [4], 8.29 µM; in assay [5], 15.2 µM; in assay [6], 6.84 µM; in assay [7], 15.2 µM. Besides, the total growth inhibition concentration (TGI) in assay [8] came out at 13 µM.
As to `CCN(CCCl)CCNc1c2ccccc2nc2ccc(OC)cc12`, the TGI in assay [1] stood at 6.64 µM; in assay [2], 3.49 µM; in assay [3], 2.42 µM; in assay [4] it was 1.71 µM; in assay [5], 4.71 µM; in assay [6], 3.67 µM. Further, the TGI in assay [7] turned out to be 2.85 µM; in assay [8], 4.78 µM.
As to `CC(C)(C)c1cc(C(O)(C(F)(F)F)C(F)(F)F)c2c(c1)C(C(F)(F)F)(C(F)(F)F)OC(c1ccccc1)(C(C)(C)C)N2` (centres undefined), the TGI in assay [2] worked out at 17.5 µM; in assay [3], 9.32 µM; in assay [4], 8.38 µM; in assay [5], 12.4 µM; in assay [6], 22.1 µM; in assay [7] it was 16.6 µM. For the same molecule, the total growth inhibition concentration (TGI) in assay [8] was found to be 10.4 µM.
Take `O=C1C(c2ccccc2)=C(c2ccccc2)C(c2ccccc2)/C1=C1\C(=O)C(c2ccccc2)=C(c2ccccc2)C1c1ccccc1` (centres undefined): the TGI in assay [1], in assay [2], in assay [3], in assay [4], in assay [5] and in assay [6] was greater than 100 µM each time. For the same molecule, the total growth inhibition concentration (TGI) in assay [7] and in assay [8] was greater than 100 µM throughout.
On to `CC(C)(C)c1ccccc1NS(=O)(=O)c1ccccc1`, for which the TGI in assay [1] was greater than 100 µM; in assay [2], greater than 100 µM; in assay [3], 88.2 µM; in assay [5], greater than 100 µM; in assay [6] it was greater than 100 µM; in assay [7], greater than 100 µM. In addition, the TGI in assay [8] was greater than 100 µM.
As to `Cc1cccc(C)c1NC(=O)C(=O)C1C(=O)N(c2ccccc2)N=C1N` (centres undefined), the TGI in assay [1], in assay [2], in assay [3], in assay [4], in assay [5] and in assay [6] was greater than 100 µM in each case. The TGI in assay [7] and in assay [8] was greater than 100 µM throughout.
Take `CC(=O)O[C@H]1CC[C@@]2(C)C(=CC[C@@H]3C2CC[C@]2(C)Nc4oncc4CC32)C1` (some centres undefined): the TGI is greater than 100 µM in assay [1]; greater than 100 µM in assay [2]; 49.5 µM in assay [3]; 30.7 µM in assay [5]; greater than 100 µM in assay [6]; greater than 100 µM in assay [8].
Regarding `CCCCCCCCCCCCC(Br)C(=O)SCCNC(=O)CCNC(=O)[C@@H](O)C(C)(C)COP(=O)(O)OP(=O)(O)OCC1OC(n2cnc3c(N)ncnc32)C(O)C1OP(=O)(O)O` (some centres undefined), the TGI in assay [1], in assay [2], in assay [3], in assay [4], in assay [5] and in assay [6] was greater than 56.5 µM in each case. Also, the TGI in assay [7] and in assay [8] was greater than 56.5 µM throughout.
On to `CCOC(=O)[C@H]1Nc2ccc(O)cc2C2c3ccccc3CC21` (some centres undefined), for which the total growth inhibition concentration (TGI) is greater than 100 µM in assay [1]; greater than 100 µM in assay [2]; greater than 100 µM in assay [3]; greater than 100 µM in assay [4]; 91.8 µM in assay [5]; 98 µM in assay [6]. The TGI in assay [7] and in assay [8] was greater than 100 µM throughout.
On to `CCCCCCCCCCCCCC(=O)OCC1OC(OC)C(NC(=O)N(CCCl)N=O)C(O)C1O` (centres undefined), for which the TGI in assay [1] was 65.6 µM; in assay [3], 75.7 µM; in assay [5] it was 53.2 µM; in assay [6] it was 59.4 µM; in assay [7], 76.3 µM; in assay [8], 52.4 µM.
Turning to `CCOc1ccc(NC(=O)C2=C(C)NC(C)=C(C(=O)Nc3ccc(OCC)cc3)C2c2ccc([N+](=O)[O-])cc2)cc1`, the TGI was 66.2 µM in assay [1]; greater than 100 µM in assay [2]; greater than 100 µM in assay [3]; greater than 100 µM in assay [4]; greater than 100 µM in assay [5]; greater than 100 µM in assay [6]. For the same molecule, the TGI in assay [7] and in assay [8] was greater than 100 µM in each case.
For `O=S1(=O)CSc2ccc3ccccc3c2-c2c1ccc1ccccc21`, the TGI in assay [4], in assay [5], in assay [6], in assay [7] and in assay [8] was greater than 100 µM each time.
With `C[Si](C)(C)/C(Br)=C\CCN1C(=O)CCC1O` (centres undefined), the TGI in assay [1], in assay [2], in assay [3], in assay [4], in assay [5] and in assay [6] was greater than 100 µM in each case. Moreover, the TGI in assay [7] and in assay [8] was greater than 100 µM in each case.
Take `N#CC(C#N)=C1NC(=O)C(c2ccccc2)C(=O)N1` (centres undefined): the TGI in assay [1], in assay [2], in assay [3], in assay [4], in assay [5] and in assay [7] was greater than 100 µM in each case. In assay [8], this molecule displayed a TGI greater than 100 µM.
Consider `COC(=O)C1Cc2c([nH]c3ccccc23)C=N1` (centres undefined), for which the TGI in assay [1], in assay [2], in assay [3], in assay [4], in assay [5] and in assay [6] was greater than 100 µM in each case. Also, the TGI in assay [7] and in assay [8] was greater than 100 µM in each case.
`COC(=O)/C(C#N)=C1\N=NNN1CCCc1ccccc1`: the TGI was greater than 100 µM in assay [1]; greater than 100 µM in assay [2]; greater than 100 µM in assay [3]; 52.7 µM in assay [4]; greater than 100 µM in assay [5]; greater than 100 µM in assay [6]. Moreover, the TGI in assay [7] and in assay [8] was greater than 100 µM each time.
For the molecule `Cc1cc2c(=O)cc(-c3ccc(Cl)cc3)oc2c(C(=O)O)c1C`, the TGI in assay [2], in assay [3], in assay [4], in assay [5], in assay [6] and in assay [7] was greater than 100 µM each time. For the same molecule, the TGI in assay [8] was greater than 100 µM.
